Experimental data reported in PMC5702897 (CPT: Pharmacometrics & Systems Pharmacology, 2017).
Read-outs that look alike come from different tables or passages of the source.

Columns and labels:
[1] = 40 mg single dose, healthy volunteers, cited from earlier work
[2] = weakly basic compound; cited from earlier work
[3] = 15 to 450 mg given in fasted state; cited from earlier work

## CS(=O)(=O)N1CCN(Cc2cc3nc(-c4cccc5[nH]ncc45)nc(N4CCOCC4)c3s2)CC1 [pictilisib, Pictilisib]
PPI=0, Fasted
  Absorption rate constant (Ka), typical value: 2.63 h⁻¹
PPI=0, Fed
  Absorption rate constant (Ka), typical value: 0.297 h⁻¹
PPI=1, Fasted
  Absorption rate constant (Ka), typical value: 1.361 h⁻¹
PPI=1, Fed
  Absorption rate constant (Ka), typical value: 0.154 h⁻¹
Both PPI and food present
  Ka as percent of the fasted state value: about 6%
Healthy volunteers, 40 mg
  Absorption lag time (Tlag), typical value: 0.47 H
  Central volume (Vc/F), typical value: 304.9 L
  Peripheral volume (Vp/F), typical value: 175.9 L
human, in vivo
  BSV of absorption lag time (Tlag): 3.00%
  BSV of central volume (Vc/F): 37.7%
One value for all four states
  BSV of absorption rate constant (Ka): 51.9%
Regardless of food
  decrease in Ka with PPI: ~50%
[1]; fasted with PPI (rabeprazole)
  median AUCinf: 906 ng·h/mL
[1]; fasted
  median AUCinf: 1,760 ng/mL*h
[1]; fed (high-fat food)
  median AUCinf: 2,070 ng/mL*h
[1]; fed with PPI (rabeprazole)
  median AUCinf: 1,180 ng/mL*h
[2]
  pKa (first value): 4.2
[3]
  dose proportionality of PK: dose‐proportionality
